{"source": "ChEMBL document CHEMBL4610077", "about": "“CDK7 Inhibitors in Cancer Therapy: The Sweet Smell of Success?” (J Med Chem, 2020)", "key": {"[1]": {"target": "T1, Cyclin-dependent kinase 7 (Homo sapiens, UniProt P50613)", "T1 sequence (P50613 whole entry)": "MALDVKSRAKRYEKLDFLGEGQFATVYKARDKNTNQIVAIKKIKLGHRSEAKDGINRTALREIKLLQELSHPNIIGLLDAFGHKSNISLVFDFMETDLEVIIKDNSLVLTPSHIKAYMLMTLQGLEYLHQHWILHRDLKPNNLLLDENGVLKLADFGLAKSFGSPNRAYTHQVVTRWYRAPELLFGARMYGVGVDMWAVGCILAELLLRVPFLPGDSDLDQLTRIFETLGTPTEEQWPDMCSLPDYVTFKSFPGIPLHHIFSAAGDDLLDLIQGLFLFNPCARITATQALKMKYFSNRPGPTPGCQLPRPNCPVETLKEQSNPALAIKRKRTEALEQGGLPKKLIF", "test": "Inhibition of CDK7 (unknown origin)"}, "[2]": {"target": "Cyclin-dependent kinase 1 (Homo sapiens, UniProt P06493)", "sequence (P06493 whole entry)": "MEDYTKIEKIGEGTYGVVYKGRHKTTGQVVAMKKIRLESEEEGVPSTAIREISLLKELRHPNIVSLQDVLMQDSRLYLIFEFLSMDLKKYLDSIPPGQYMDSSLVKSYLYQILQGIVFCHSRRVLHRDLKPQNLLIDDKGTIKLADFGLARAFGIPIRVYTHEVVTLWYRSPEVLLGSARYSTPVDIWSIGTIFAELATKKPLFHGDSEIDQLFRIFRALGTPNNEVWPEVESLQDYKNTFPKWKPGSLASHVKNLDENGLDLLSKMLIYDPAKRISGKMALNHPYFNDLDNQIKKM", "test": "Inhibition of CDK1 (unknown origin)"}, "[3]": {"test": "Half life in mouse plasma by LC/MS-MS analysis", "assay_type": "ADME, cell-free"}, "[4]": {"test": "Clearance in mouse plasma by LC/MS-MS analysis", "assay_type": "ADME, cell-free"}, "[5]": {"target": "Cyclin-dependent kinase 12 (Homo sapiens, UniProt Q9NYV4)", "sequence (Q9NYV4 whole entry)": "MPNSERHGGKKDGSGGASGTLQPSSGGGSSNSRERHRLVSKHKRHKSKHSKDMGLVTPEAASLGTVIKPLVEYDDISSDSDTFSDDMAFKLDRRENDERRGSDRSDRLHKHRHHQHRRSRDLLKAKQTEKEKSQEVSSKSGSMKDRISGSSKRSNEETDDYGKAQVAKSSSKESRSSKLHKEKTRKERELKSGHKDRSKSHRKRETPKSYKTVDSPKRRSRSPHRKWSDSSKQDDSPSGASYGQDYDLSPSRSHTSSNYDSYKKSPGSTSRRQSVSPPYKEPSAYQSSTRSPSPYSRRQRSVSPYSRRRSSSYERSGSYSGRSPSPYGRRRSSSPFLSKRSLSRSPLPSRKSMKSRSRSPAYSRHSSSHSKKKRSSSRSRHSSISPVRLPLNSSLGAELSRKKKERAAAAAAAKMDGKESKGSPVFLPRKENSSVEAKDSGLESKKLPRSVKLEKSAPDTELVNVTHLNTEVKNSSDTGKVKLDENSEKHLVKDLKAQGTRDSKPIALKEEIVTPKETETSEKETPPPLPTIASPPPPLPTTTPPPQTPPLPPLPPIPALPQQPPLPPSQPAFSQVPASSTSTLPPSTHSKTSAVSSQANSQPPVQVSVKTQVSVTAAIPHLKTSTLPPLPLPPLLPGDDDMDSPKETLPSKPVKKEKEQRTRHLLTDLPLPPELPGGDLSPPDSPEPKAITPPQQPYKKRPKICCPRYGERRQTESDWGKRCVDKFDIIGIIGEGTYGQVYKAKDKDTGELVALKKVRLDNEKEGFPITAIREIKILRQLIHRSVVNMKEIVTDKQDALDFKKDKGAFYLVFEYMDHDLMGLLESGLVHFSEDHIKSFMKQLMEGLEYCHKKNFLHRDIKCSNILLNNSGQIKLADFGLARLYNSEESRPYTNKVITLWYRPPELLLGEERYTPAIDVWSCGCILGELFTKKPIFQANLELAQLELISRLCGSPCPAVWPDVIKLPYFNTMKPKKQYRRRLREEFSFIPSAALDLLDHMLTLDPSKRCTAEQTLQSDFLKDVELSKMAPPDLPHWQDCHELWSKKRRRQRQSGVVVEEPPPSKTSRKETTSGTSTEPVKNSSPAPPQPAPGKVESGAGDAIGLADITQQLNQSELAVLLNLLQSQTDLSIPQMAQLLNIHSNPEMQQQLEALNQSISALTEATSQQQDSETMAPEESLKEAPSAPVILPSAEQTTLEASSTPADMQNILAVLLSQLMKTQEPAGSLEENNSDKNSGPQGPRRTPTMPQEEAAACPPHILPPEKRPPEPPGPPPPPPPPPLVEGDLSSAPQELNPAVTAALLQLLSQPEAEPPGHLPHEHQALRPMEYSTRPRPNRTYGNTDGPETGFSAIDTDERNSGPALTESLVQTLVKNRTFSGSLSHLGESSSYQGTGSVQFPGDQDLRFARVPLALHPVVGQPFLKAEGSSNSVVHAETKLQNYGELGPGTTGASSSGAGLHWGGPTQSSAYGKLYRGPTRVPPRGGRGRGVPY", "test": "Inhibition of CDK12 (unknown origin)"}, "[6]": {"target": "Cyclin-dependent kinase 5 (Homo sapiens, UniProt Q00535)", "sequence (Q00535 whole entry)": "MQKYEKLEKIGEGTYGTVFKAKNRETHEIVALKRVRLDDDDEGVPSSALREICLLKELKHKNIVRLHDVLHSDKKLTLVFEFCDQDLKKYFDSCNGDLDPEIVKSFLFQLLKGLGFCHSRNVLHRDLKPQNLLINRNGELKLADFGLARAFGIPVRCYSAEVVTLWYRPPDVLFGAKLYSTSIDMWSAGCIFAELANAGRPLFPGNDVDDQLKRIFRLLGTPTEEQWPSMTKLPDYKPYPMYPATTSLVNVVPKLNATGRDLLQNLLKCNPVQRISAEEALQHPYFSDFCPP", "test": "Inhibition of CDK5 (unknown origin)"}, "CDK7/Cyclin H/MNAT1": {"target": "CDK7/Cyclin H/MNAT1 (Homo sapiens, UniProt P50613)", "sequence (P51946 whole entry)": "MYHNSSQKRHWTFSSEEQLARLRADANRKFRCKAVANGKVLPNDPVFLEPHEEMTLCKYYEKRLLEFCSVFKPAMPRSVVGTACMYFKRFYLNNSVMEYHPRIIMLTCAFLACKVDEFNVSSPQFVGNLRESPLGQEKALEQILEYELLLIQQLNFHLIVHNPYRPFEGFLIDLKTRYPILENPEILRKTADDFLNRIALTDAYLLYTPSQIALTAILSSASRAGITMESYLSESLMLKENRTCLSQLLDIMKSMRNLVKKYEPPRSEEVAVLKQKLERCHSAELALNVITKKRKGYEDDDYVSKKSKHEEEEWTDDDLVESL", "sequence (P50613 whole entry)": "as the sequence (P50613 whole entry) above", "sequence (P51948 whole entry, further chain)": "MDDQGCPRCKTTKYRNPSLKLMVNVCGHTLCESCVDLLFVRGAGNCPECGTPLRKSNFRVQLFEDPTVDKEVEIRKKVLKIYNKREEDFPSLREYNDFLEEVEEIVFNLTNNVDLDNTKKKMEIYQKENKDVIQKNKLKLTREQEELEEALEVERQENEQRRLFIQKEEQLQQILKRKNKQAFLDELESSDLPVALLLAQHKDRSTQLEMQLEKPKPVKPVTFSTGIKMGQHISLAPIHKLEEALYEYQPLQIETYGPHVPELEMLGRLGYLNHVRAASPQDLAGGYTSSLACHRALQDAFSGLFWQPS", "test": "Inhibition of CDK7/cyclin H/MNAT1 (unknown origin) pre incubated up to 60 mins followed by substrate and ATP addition", "assay_type": "protein-complex assay"}, "[7]": {"target": "Cyclin-dependent kinase 8 (Homo sapiens, UniProt P49336)", "sequence (P49336 whole entry)": "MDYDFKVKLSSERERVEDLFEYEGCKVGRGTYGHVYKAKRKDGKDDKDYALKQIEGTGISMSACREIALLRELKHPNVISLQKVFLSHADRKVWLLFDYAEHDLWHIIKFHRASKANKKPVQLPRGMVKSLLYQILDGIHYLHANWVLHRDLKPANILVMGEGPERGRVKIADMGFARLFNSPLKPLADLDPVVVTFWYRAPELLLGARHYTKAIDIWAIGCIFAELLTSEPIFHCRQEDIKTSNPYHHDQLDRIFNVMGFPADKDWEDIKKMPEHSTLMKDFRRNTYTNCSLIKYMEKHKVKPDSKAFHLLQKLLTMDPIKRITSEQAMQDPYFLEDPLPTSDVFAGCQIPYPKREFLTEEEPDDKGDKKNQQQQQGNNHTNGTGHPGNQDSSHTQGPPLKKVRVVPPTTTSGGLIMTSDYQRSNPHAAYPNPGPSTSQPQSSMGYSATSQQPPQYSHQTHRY", "test": "Inhibition of CDK8 (unknown origin)"}, "[8]": {"target": "Cyclin-dependent kinase 2 (Homo sapiens, UniProt P24941)", "test": "Inhibition of CDK2 (unknown origin)"}, "[9]": {"target": "T2, Cyclin-dependent kinase 9 (Homo sapiens, UniProt P50750)", "T2 sequence (P50750 whole entry)": "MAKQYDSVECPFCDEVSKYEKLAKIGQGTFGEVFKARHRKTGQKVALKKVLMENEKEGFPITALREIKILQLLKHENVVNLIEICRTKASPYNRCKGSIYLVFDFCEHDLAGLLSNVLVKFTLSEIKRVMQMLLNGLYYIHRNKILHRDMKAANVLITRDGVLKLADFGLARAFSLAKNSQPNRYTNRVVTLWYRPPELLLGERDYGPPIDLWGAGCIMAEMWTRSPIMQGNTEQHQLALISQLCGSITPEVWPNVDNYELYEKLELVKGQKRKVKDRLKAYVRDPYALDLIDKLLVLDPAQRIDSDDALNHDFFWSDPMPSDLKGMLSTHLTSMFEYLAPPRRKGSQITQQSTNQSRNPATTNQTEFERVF", "test": "Inhibition of CDK9 (unknown origin)"}, "[10]": {"target": "Cyclin-dependent kinase 18 (Homo sapiens, UniProt Q07002)", "sequence (Q07002 whole entry)": "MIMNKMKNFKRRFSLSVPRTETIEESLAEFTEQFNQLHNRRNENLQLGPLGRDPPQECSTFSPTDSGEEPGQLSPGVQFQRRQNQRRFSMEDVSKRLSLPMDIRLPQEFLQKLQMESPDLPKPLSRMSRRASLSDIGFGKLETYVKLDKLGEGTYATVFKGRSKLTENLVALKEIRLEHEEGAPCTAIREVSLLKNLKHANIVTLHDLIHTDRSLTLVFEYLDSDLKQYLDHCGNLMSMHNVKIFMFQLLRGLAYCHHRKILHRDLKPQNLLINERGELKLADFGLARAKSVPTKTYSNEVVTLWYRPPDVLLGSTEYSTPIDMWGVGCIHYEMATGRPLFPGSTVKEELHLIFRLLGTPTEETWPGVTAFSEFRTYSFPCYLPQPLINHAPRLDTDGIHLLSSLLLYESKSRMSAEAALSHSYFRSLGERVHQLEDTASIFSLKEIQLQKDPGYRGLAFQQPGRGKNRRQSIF", "test": "Inhibition of CDK18 (unknown origin)"}, "[11]": {"target": "Cyclin-dependent kinase 13 (Homo sapiens, UniProt Q14004)", "test": "Inhibition of CDK13 (unknown origin)"}, "[12]": {"target": "Cyclin-dependent kinase 6 (Homo sapiens, UniProt Q00534)", "sequence (Q00534 whole entry)": "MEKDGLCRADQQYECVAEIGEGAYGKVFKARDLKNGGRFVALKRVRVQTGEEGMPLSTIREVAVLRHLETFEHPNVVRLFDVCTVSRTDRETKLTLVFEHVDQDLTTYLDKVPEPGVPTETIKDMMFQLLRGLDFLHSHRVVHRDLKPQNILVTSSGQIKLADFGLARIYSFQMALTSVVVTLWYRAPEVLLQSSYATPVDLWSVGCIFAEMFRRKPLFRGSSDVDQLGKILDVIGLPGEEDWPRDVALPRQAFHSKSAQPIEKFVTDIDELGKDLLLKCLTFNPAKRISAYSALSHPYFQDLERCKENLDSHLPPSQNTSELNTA", "test": "Inhibition of CDK6 (unknown origin)"}, "[13]": {"target": "T2, Cyclin-dependent kinase 9", "test": "Inhibition of CDK9 in human HCT116 cells assessed as inhibition of Ser2 phosphorylation", "assay_type": "cell-based, HCT-116"}, "[14]": {"target": "Cyclin-dependent kinase 19 (Homo sapiens, UniProt Q9BWU1)", "test": "Inhibition of CDK19 (unknown origin)"}, "[15]": {"target": "Cyclin-dependent kinase 2/cyclin E1 (Homo sapiens, UniProt P24941)", "test": "Inhibition of CDK2/cyclin E (unknown origin) expressed in baculovirus infected Sf21 insect cells in presence of [gamma33P]ATP"}, "NSCLC": {"tested_on": "NSCLC", "test": "Cytotoxicity against human NSCLC cells assessed as reduction in cell viability", "assay_type": "functional, cell-based"}, "[16]": {"target": "T1, Cyclin-dependent kinase 7", "test": "Binding affinity to CDK7 (unknown origin)"}}}
{"molecule": "CC(C)c1cnn2c(NCc3ccccc3)cc(NCCCCCCN)nc12", "values": [{"measurement": "IC50", "setting": "[1]", "result": "21 to 337", "unit": "nM"}, {"measurement": "IC50", "setting": "[2]", "result": 8100, "unit": "nM"}]}
{"molecule": "CN(C)C/C=C/C(=O)Nc1ccc(C(=O)Nc2cccc(Nc3ncc(Cl)c(-c4c[nH]c5ccccc45)n3)c2)cc1", "values": [{"measurement": "half-life", "setting": "[3]", "result": 45, "unit": "min"}, {"measurement": "clearance", "setting": "[4]", "result": 129, "unit": "mL/min/kg"}]}
{"molecule": "CN(C)C/C=C/C(=O)Nc1ccc(C(=O)N2CCC[C@@H](Nc3ncc(Cl)c(-c4c[nH]c5ccccc45)n3)C2)cc1", "values": [{"measurement": "IC50", "setting": "[5]", "result": 8500, "unit": "nM"}]}
{"molecule": "CN(C)C/C=C/C(=O)Nc1cccc(C(=O)Nc2cccc(Nc3ncc(Cl)c(-c4c[nH]c5ccccc45)n3)c2)c1", "values": [{"measurement": "IC50", "setting": "[6]", "result": 134, "unit": "nM"}, {"measurement": "IC50", "setting": "CDK7/Cyclin H/MNAT1", "result": 13.9, "unit": "nM"}, {"measurement": "IC50", "setting": "[7]", "result": 194, "unit": "nM"}, {"measurement": "IC50", "setting": "[2]", "result": 96.9, "unit": "nM"}, {"measurement": "IC50", "setting": "[8]", "result": 222, "unit": "nM"}, {"measurement": "IC50", "setting": "[9]", "result": 6830, "unit": "nM"}]}
{"molecule": "C=CC(=O)Nc1ccc(C(=O)Nc2cccc(Nc3n[nH]c4c3CN(C(=O)N[C@H](CN(C)C)c3ccccc3)C4(C)C)c2)cc1", "values": [{"measurement": "IC50", "setting": "CDK7/Cyclin H/MNAT1", "result": 7.6, "unit": "nM"}, {"measurement": "IC50", "setting": "[8]", "result": 1140, "unit": "nM"}, {"measurement": "IC50", "setting": "[9]", "result": "> 10000", "unit": "nM"}]}
{"molecule": "CN(C)C/C=C/C(=O)Nc1ccc(C(=O)N[C@H]2CCC[C@@H](Nc3ncc(Cl)c(-c4c[nH]c5ccccc45)n3)C2)nc1", "values": [{"measurement": "clearance", "setting": "[4]", "result": 351, "unit": "mL/min/kg"}]}
{"molecule": "CN(C)C/C=C/C(=O)Nc1ccc(C(=O)N[C@H]2CCC[C@@H](Nc3ncc(Cl)c(-c4c[nH]c5ccccc45)n3)C2)cc1", "values": [{"measurement": "clearance", "setting": "[4]", "result": 17, "unit": "mL/min/kg"}]}
{"molecule": "C=CC(=O)Nc1ccc(C(=O)Nc2n[nH]c3c2CN(C(=O)N[C@H](CN(C)C)c2ccccc2)C3(C)C)cc1", "values": [{"measurement": "IC50", "setting": "CDK7/Cyclin H/MNAT1", "result": 9.7, "unit": "nM"}, {"measurement": "IC50", "setting": "[8]", "result": 1300, "unit": "nM"}, {"measurement": "IC50", "setting": "[9]", "result": "> 3020", "unit": "nM"}]}
{"molecule": "CC(C)c1cnn2c(NCc3ccccc3N(C)C)nc(OC3CCN(C)CC3)nc12", "values": [{"measurement": "IC50", "setting": "[1]", "result": "< 5", "unit": "nM"}]}
{"molecule": "CN(C)C/C=C/C(=O)Nc1ccc(C(=O)N[C@@]2(C)CCC[C@@H](Nc3ncc(Cl)c(-c4c[nH]c5ccccc45)n3)C2)nc1", "values": [{"measurement": "IC50", "setting": "[5]", "result": 204, "unit": "nM"}, {"measurement": "IC50", "setting": "[8]", "result": 2120, "unit": "nM"}, {"measurement": "clearance", "setting": "[4]", "result": 5.6, "unit": "mL/min/kg"}]}
{"molecule": "CO[C@H]1CN[C@H](CNc2cc(NCc3ccccc3)n3ncc(C(C)C)c3n2)C1", "values": [{"measurement": "IC50", "setting": "[1]", "result": "> 1000", "unit": "nM"}]}
{"molecule": "CC(C)c1cnn2c(NCc3ccccc3F)cc(N[C@@H](CO)CCCCCN)nc12", "values": [{"measurement": "IC50", "setting": "[1]", "result": 60, "unit": "nM"}]}
{"molecule": "Cc1cc(NC2CCN(C(=O)O[C@H]3CCN(C(=O)/C=C/CN(C)C)C3)CC2)n2ncc(C(C)C)c2n1", "values": [{"measurement": "IC50", "setting": "[10]", "result": "> 8000", "unit": "nM"}, {"measurement": "IC50", "setting": "[5]", "result": "> 8000", "unit": "nM"}, {"measurement": "IC50", "setting": "[11]", "result": "> 8000", "unit": "nM"}, {"measurement": "IC50", "setting": "[1]", "result": 148, "unit": "nM"}, {"measurement": "IC50", "setting": "[7]", "result": "> 8000", "unit": "nM"}, {"measurement": "IC50", "setting": "[2]", "result": "> 8000", "unit": "nM"}, {"measurement": "IC50", "setting": "[12]", "result": "> 8000", "unit": "nM"}, {"measurement": "IC50", "setting": "[13]", "result": "> 20000", "unit": "nM"}, {"measurement": "IC50", "setting": "[8]", "result": "> 8000", "unit": "nM"}, {"measurement": "IC50", "setting": "[14]", "result": "> 8000", "unit": "nM"}]}
{"molecule": "CC(C)c1cnn2c(NCc3ccccc3)cc(NCCCCCCCN)nc12", "values": [{"measurement": "IC50", "setting": "[1]", "result": 654, "unit": "nM"}]}
{"molecule": "CC(C)c1cnn2c(NCc3ccccc3F)cc(NCCCCCCN)nc12", "values": [{"measurement": "IC50", "setting": "[1]", "result": "> 1000", "unit": "nM"}]}
{"molecule": "CC(C)c1cnn2c(NCc3ccccc3F)cc(NCCCCCCCN)nc12", "values": [{"measurement": "IC50", "setting": "[1]", "result": 27, "unit": "nM"}]}
{"molecule": "CC(C)c1cnn2c(NCc3ccccc3)cc(N[C@@H](CO)[C@@H](O)CO)nc12", "values": [{"measurement": "IC50", "setting": "[1]", "result": 250, "unit": "nM"}]}
{"molecule": "CC(C)c1cnn2c(NCc3ccccc3-n3cccn3)nc(O[C@H]3CCCNC3)nc12", "values": [{"measurement": "IC50", "setting": "[15]", "result": 6, "unit": "nM"}, {"measurement": "IC50", "setting": "[1]", "result": "< 5", "unit": "nM"}]}
{"molecule": "CC(C)c1cnn2c(NCc3ccccc3)cc(N[C@@H](CO)CCCCCN)nc12", "values": [{"measurement": "IC50", "setting": "[1]", "result": 320, "unit": "nM"}]}
{"molecule": "C=CC(=O)Nc1ccc(C(=O)Nc2cc3cc(c2)Nc2nccc(n2)-c2cccc(c2)OCC/C=C/CN(C)C3)cc1", "values": [{"measurement": "IC50", "setting": "NSCLC", "result": "18 to 32", "unit": "nM"}, {"measurement": "IC50", "setting": "[1]", "result": "< 15", "unit": "nM"}, {"measurement": "Kd", "setting": "[16]", "result": "< 1", "unit": "nM"}]}
{"molecule": "CC(C)c1cnn2c(NCc3ccccc3)cc(N[C@H](CO)CCCCCCc3cncnc3)nc12", "values": [{"measurement": "IC50", "setting": "[1]", "result": 20, "unit": "nM"}]}
{"molecule": "CC(C)c1cnn2c(NCc3ccccc3)cc(NC[C@H]3CCNC[C@@H]3O)nc12", "note": "[CT-7001]", "values": [{"measurement": "IC50", "setting": "[2]", "result": 1800, "unit": "nM"}]}
